This note sets out measurements from patent US6967196B1, “Sulfonamide compounds and uses thereof” (Bristol-Myers Squibb Company, priority 1999, dated 2005).

pIC50: −log10 of the molar value. Where only a bound is given, the exact number is not on record here.

The subject of the first test is amyloid β production in transfected H4 (human neuroglioma) cells stably expressing APP constructs. Description: In vitro cell-based assay of inhibitors of amyloid β production (ELISA). Conditions: transfected H4 cells stably expressing APP constructs; approximately 16 hours incubation; amyloid β in medium by ELISA; read-out: ACTIVITY (IC50, inhibition of amyloid β production). As for the experimental part:
In Vitro Cell-Based Assay of Inhibitors of Amyloid β Production
Transfected H4 (human neuroglioma) cells stably expressing APP constructs are used to identify and assess inhibitors of Aβ production. In brief, cells lines are exposed to compounds, and the effect of each compound on amyloid β production is determined by measuring the amount of amyloid β produced using an enzyme linked immunosorbent assay (ELISA) that detects amyloid β (see, for example, Seubert et al., (1992) Nature, 359:325-327).
Transfected cells that stably express wild-type and variant forms of APP are plated in 96-well format plates at a density sufficient for the rapid detection of the secreted amyloid β (experimentally predetermined for a particular stable cell population). Cells are plated at least six hours prior to the introduction of the test compound at which time the growth medium is replaced by fresh medium containing the compound to be tested. All synthetic agents are initially screened at doses ranging from 10-100 μM. Higher dilutions of agents can be used to minimize cytotoxicity. Incubation of cells with a test compound continues for approximately 16 hours at which time aliquots of medium from each well are removed and assayed for amyloid β.
ELISA is carried out by methods known in the art (see, e.g., Haass et al., Antibodies: A Laboratory Manual, Harlow and lane, Editors, Cold Spring Harbor Press, 1988) The capture antibody is typically a mouse monoclonal (IgG1/kβ-APPa) which recognizes the carboxyl terminal epitope of amyloid β. The specificity of the capture antibody insures measurement of amyloid β without interference from other secreted APP fragments that share amino acid sequence (amyloid β 1-16) homology with amyloid β but lack the carboxy-terminal region. The detecting antibody is typically an affinity-purified rabbit polyclonal antibody that is specific for the amino terminus of amyloid β.
Results from test compounds are compared to results obtained when cells are treated with control agents. Amyloid β levels are determined by comparison to a standard curve obtained by subjecting a range of known amounts of amyloid β to the ELISA.
A compound is identified as “active” when it inhibits cellular production of amyloid β relative to levels in control samples by at least 50% at the initial tested concentration without significant cytotoxicity. Active compounds are then assayed in dose-response experiments to determine the lowest dose of compound necessary for inhibition of amyloid β production.
As to “4-[2-({[(2-nitrophenyl)sulfonyl]anilino}methyl)phenyl]butanoic acid [Example 1097]”, the pIC50 was less than 5.00.
Consider “4-chloro-2-({[(4-chlorophenyl)sulfonyl]anilino}methyl)phenyl trifluoromethanesulfonate [Example 1090]”, for which the pIC50 is less than 5.00.
Consider “4-chloro-N-(2,5-dichlorophenyl)-N-[3-[2-[4-chloro-N-(2,5-dichlorophenyl)-N-[(3-amino)-1(R)-methylpropyl]benzenesulfonamide]-3,4-dioxo-1-cyclobutenyl)amine-1(R)- [Example 1143]”, for which the pIC50 was 6.30 to 7.00.
“4-chloro-N-(2,5-dichlorophenyl)-N-[5-(1,1-dioxido-4-thiomorpholinyl)-1(R)-methylpropyl]benzenesulfonamide [Example 1104]”: the pIC50 is no less than 7.60.
For “4-chloro-N-(2,5-dichlorophenyl)-N-[5-[[2-[(methylsulfonyl)-1-piperidinyl]-1(R)-methylpentyl]benzenesulfonamide [Example 1116]”, the pIC50 is 7.30 to 7.60.

The same test, now with this note: transfected H4 cells stably expressing APP; approx. 16 h incubation; amyloid β in medium by ELISA; read-out: ACTIVITY (IC50, inhibition of amyloid β production).
Turning to “2-[2-((1R)-1-{[(4-chlorophenyl)sulfonyl]-2,5-difluoroanilino}ethyl)phenyl]ethyl 1,2,3,4-tetrahydro-1-naphthalenylcarbamate [Example 644]”, the negative-log IC50 (pIC50) is 6.30 to 7.00.
Turning to “2-[2-((1R)-1-{[(4-chlorophenyl)sulfonyl]-2,5-difluoroanilino}ethyl)phenyl]ethyl 3,4-difluorobenzylcarbamate [Example 726]”, the pIC50 was 6.30 to 7.00.
On the same count and under the same terms, the same measure for “2-[2-((1R)-1-{[(4-chlorophenyl)sulfonyl]-2,5-difluoroanilino}ethyl)phenyl]ethyl phenylcarbamate [Example 762]”: 6.30 to 7.00; for “2-[2-((1R)-1-{[(4-chlorophenyl)sulfonyl]-2,5-difluoroanilino}ethyl)phenyl]ethyl sec-butylcarbamate [Example 650]”: 6.30 to 7.00; for “2-bromo-N-{3-(2-({[(4-chlorophenyl)sulfonyl]-2,5-difluoroanilino}methyl)phenoxy]propyl}-N-methylbenzamide [Example 641]”: 6.30 to 7.00.
For “2-chloro-N-{3-[2-(1-{[(4-chlorophenyl)sulfonyl]-2,5-difluoroanilino}methyl)phenoxy]propyl}-N-methylbenzamide [Example 774]”, the pIC50 is 6.30 to 7.00.
Turning to “3-[2-((1R)-1-{[(4-chlorophenyl)sulfonyl]-2,5-difluoroanilino}ethyl)phenyl]-N-isopropylpropanamide [Example 655]”, the pIC50 is 6.30 to 7.00.
“3-[2-((1R)-1-{[(4-chlorophenyl)sulfonyl]-2,5-difluoroanilino}ethyl)phenyl]propyl benzyl(methyl)carbamate [Example 763]”: the negative logarithm of the IC50 (pIC50) is 6.30 to 7.00.
In the case of “3-[2-((1R)-1-{[(4-chlorophenyl)sulfonyl]-2,5-difluoroanilino}ethyl)phenyl]propyl phenylcarbamate [Example 730]”, the pIC50 is 6.30 to 7.00.
Same read-out and setting: the figure for “3-chloro-N-{3-[2-(1-{[(4-chlorophenyl)sulfonyl]-2,5-difluoroanilino}ethyl)phenoxy]propyl}-N-methylbenzamide [Example 688]” is 6.30 to 7.00.
With “3-chloro-N-{3-[2-(1-{[(4-chlorophenyl)sulfonyl]-2,5-difluoroanilino}ethyl)phenoxy]propyl}-N-methylbenzenesulfonamide [Example 684]”, the pIC50 was 6.30 to 7.00.
“4-bromo-N-{3-[2-(1-{[(4-chlorophenyl)sulfonyl]-2,5-difluoroanilino}ethyl)phenoxy]propyl}-N-methylbenzamide [Example 683]”: the pIC50 was 6.30 to 7.00.

Still in this test, the particulars now being: transfected H4 cells stably expressing APP; approximately 16 hours incubation; amyloid β in medium by ELISA; Table B; read-out: ACTIVITY (IC50, inhibition of amyloid β production).
Take “2-[2-((1R)-1-{[(4-chlorophenyl)sulfonyl]-2,5-difluoroanilino}ethyl)-5-fluorophenyl]ethyl 2,5-difluorobenzylcarbamate [Example 358]”: the pIC50 was 7.00 to 7.30.
For the substance “3-[2-((1R)-1-{[(4-chlorophenyl)sulfonyl]-2,5-difluoroanilino}ethyl)phenyl]-N-(2,5-difluorobenzyl)propanamide [Example 383]”, the pIC50 was 7.00 to 7.30.

The test is the same for the next values; noted with them: transfected H4 cells stably expressing APP; approximately 16 hours incubation; amyloid β in medium by ELISA; read-out: ACTIVITY (IC50, inhibition of amyloid β production).
As to “2-[2-(1-{[(4-chlorophenyl)sulfonyl]-2,5-difluoroanilino}ethyl)phenoxy]-N-methylacetamide [Example 1064]”, the pIC50 was less than 6.30.
Consider “3,4-dichloro-N-{3-[2-(1-{[(4-chlorophenyl)sulfonyl]-2,5-difluoroanilino}ethyl)phenoxy]propyl}-N-methylbenzamide [Example 847]”, for which the pIC50 is 6.30 to 7.00.
As for “3,4-dichloro-N-{3-[2-(1-{[(4-chlorophenyl)sulfonyl]-2,5-difluoroanilino}ethyl)phenoxy]propyl}-N-methylbenzenesulfonamide [Example 822]”, the negative-log IC50 (pIC50) was 6.30 to 7.00.
On to “3,4-dichloro-N-{3-[2-({[(4-chlorophenyl)sulfonyl]-2,5-difluoroanilino}methyl)phenoxy]propyl}-N-methylbenzamide [Example 932]”, for which the pIC50 is less than 6.30.
On to “3,5-dichloro-N-{3-[2-(1-{[(4-chlorophenyl)sulfonyl]-2,5-difluoroanilino}ethyl)phenoxy]propyl}-N-methylbenzamide [Example 950]”, for which the pIC50 was less than 6.30.
As for “3,5-dichloro-N-{3-[2-({[(4-chlorophenyl)sulfonyl]-2,5-difluoroanilino}methyl)phenoxy]propyl}-N-methylbenzamide [Example 1002]”, the pIC50 is less than 6.30.
As for “3-(2-{[(phenylsulfonyl)anilino]methyl}phenyl)propanoic acid [Example 993]”, the pIC50 was less than 6.30.
Consider “3-((4R)-4-{[(4-chlorophenyl)sulfonyl]-2,5-difluoroanilino}-7-fluoro-1,2,3,4-tetrahydro-1-naphthalenyl)propanoic acid [Example 1007]”, for which the pIC50 is less than 6.30.
Same read-out and setting: the same measure for “3-[2-(2-{[(4-chlorophenyl)sulfonyl]-2,5-difluoroanilino}-1-methylethyl)-5-fluorophenyl]butanoic acid [Example 940]”: less than 6.30; for “3-[2-((1R)-1-{[(4-chlorophenyl)sulfonyl]-2,5-difluoroanilino}ethyl)-5-fluorophenyl]-1-propanesulfonic acid [Example 881]”: less than 6.30.
Take “3-bromo-N-{3-[2-(1-{[(4-chlorophenyl)sulfonyl]-2,5-difluoroanilino}ethyl)phenoxy]propyl}-N-methylbenzamide [Example 820]”: the pIC50 was 6.30 to 7.00.
In the case of “3-bromo-N-{3-[2-(1-{[(4-chlorophenyl)sulfonyl]-2,5-difluoroanilino}ethyl)phenoxy]propyl}-N-methylbenzenesulfonamide [Example 806]”, the negative logarithm of the IC50 (pIC50) was 6.30 to 7.00.
For “3-bromo-N-{3-[2-(1-{[(4-chlorophenyl)sulfonyl]-2,5-difluoroanilino}ethyl)phenoxy]propyl}benzamide [Example 829]”, the pIC50 is 6.30 to 7.00.
As to “3-chloro-N-{3-[2-(1-{[(4-chlorophenyl)sulfonyl]-2,5-difluoroanilino}ethyl)phenoxy]propyl}benzamide [Example 900]”, the pIC50 was less than 6.30.
Regarding “4-[2-((1R)-1-{[(4-chlorophenyl)sulfonyl]-2,5-difluoroanilino}ethyl)-5-fluorophenyl]-N-(cyanomethoxy)butanamide [Example 1079]”, the pIC50 was less than 6.30.
With “4-benzoyl-N-((1S)-1-{{(3-[2-({[(4-chlorophenyl)sulfonyl]-2,5-difluoroanilino}methyl)phenoxy]propyl}(methyl)amino]carbonyl}-5-{[5-(2-oxohexahydro- [Example 1053]”, the pIC50 is less than 6.30.
For “4-butoxy-N-{3-[2-({[(4-chlorophenyl)sulfonyl]-2,5-difluoroanilino}methyl)phenoxy]propyl}-N-methylbenzamide [Example 817]”, the pIC50 was 6.30 to 7.00.
As to “4-chloro-N-(2,5-difluorophenyl)-N-((1R)-1-{2-[3-(1H-imidazol-1-yl)propoxy]-6-methoxybenzyl}benzenesulfonamide hydrochloride [Example 911]”, the pIC50 was less than 6.30.
